Test results from patent US9157088B2, “Transferases, epimerases, polynucleotides encoding these and uses thereof” (priority 2007, dated 2015).
Values joined by “and” are separate entries in the source; they are usually repeats but may differ in a detail not shown here. Equal values may be shown once.

B1: 82552_Md: GDP-L-Galactose Guanyltransferase from Malus x domesticus (apple) (protein)
chain: MLRIKRVPTVVSNYQKDEAEEVARRVGGCGRNCLNQCCIPGAKLPLYAFKKLNVNDGDTGLLGREKREPPVAFLDSLLLGEWEDRMQRGLFRYDVTACETKVIPGQFGFIAQLNEGRHLKKRPTEFRVDKVLQPFDGSKFNFTKVGQEEVLFQFEASKDGEVQFFPSAPIDVESSPSVVAINVSPIEYGHVLLIPHILERLPQRIDRESFLLALHMAAEAGNPYFRLGYNSLGAFATINHLHFQAYYLAVTFPIEKAPTKKISTLNAEVKVSELLNYPVRGLVFEGGNTLQDLSNTVSDACICLQENNIPYNVLISDSGKRIFLVPQCYAEKQALGEVRAEILDTQVNPAVWEISGHMVLKRKKDYDEASDENAWKLLAEVSLSEERFLEVNALIFEGIASGDNGNENLLKDPEVKPRSHEEVNTINKRVHCSAVNEQICRVFTM
modifications: Malus x domesticus

What was measured:
[1] = target: T1, kiwifruit GDP-L-Galactose Guanyltransferase EST 319998 (Actinidia chinensis, UniProt A0A2R6QD99); test: Fixed time transferase assay, aliquots measured by LCMS; type: biochemical; conditions: acceptor Gal1P (reverse reaction)
Method: The assay for GDP-L-Galactose-1-Phosphate Guanyltransferase was run in 20 mM TrisCl, pH 8.0, GDP-L-Galactose, with 1 mM D-Mannose-1-Phosphate. GDP-L-Galactose was either used directly from the Glycoteam product (in which case high backgrounds were observed due to contaminating L-Galactose-1-Phosphate) or GDP-L-Galactose was generated using the epimerase. In the latter case, 0.21 mg of epimerase was incubated with GDP-D-Mannose in 20 mM Tris Cl pH 8 in a total volume of 400 μL (see Wolucka et al., 2001) for 30 minutes at 20 C and then used directly in the assay at a 1 to 20 dilution. Assays were either terminated after 10 minutes by heating to 100 C for three minutes, or directly coupled to the phosphatase and L-Galactose dehydrogenase to measure product formation during the assay. Heat terminated assays were cooled on ice, centrifuged to remove precipitated protein and L-Galactose assayed using the coupling enzymes described above (see also (Laing et al., 2004)). Assays for L-Galactose were linear with added L-Galactose-1-Phosphate over the range measured. Backgrounds were run using the empty vector control, which gave the same result as a boiled enzyme control.
As an alternative assay, LCMS was used to identify the forward reaction described above as well measure as the reverse pyrophosphorylase reaction where GTP (1 mM) and L-Galactose-1-Phosphate were incubated as above and the formation of GDP-L-Galactose followed. GDP-D-Mannose and GDP-L-Galactose were separated by HPLC before MS. LC-MS employed an LTQ linear ion trap mass spectrometer fitted with an ESI interface (ThermoQuest, Finnigan, San Jose, Calif., USA) coupled to an EttanTM MDLC (GE Healthcare Bio-Sciences). Separation of GDP-D-Mannose and GDP-L-Galactose was achieved using a Hypercarb column (Thermo Electron, USA), 100×2.1 mm maintained at 40 C. Solvents were (A) 50 mM ammonium acetate and (B) acetonitrile and the flow rate was 200 uL/min. The initial mobile phase, 5% B was held for 3 min, then ramped linearly to 20% B at 11 min, held for 5 min, then ramped linearly to 70% B at 19 min and held for 5 min before resetting to the original conditions. Retention times for GDP-D-Mannose and GDP-L-Galactose were 16.8 min and 17.5 min, respectively.
MS data was acquired in the negative mode using both a selective reaction monitoring (SRM) method SRM m/z 604>m/z 344, 362, 424, 442 and a selected ion monitoring (SIM) method SIM m/z 604. This SIM method monitors only the (M-H)— ion for GDP-D-Mannose and GDP-L-Galactose while the SRM method monitors the distinctive daughter ions formed by fragmenting the precursor ion (M-H)— for both compounds. Both methods maximise sensitivity by screening out any chemical noise from other compounds present. The ESI voltage, capillary temperature, sheath gas pressure, sweep gas and auxiliary gas were set at −10 V, 350° C., 25 psi, 3 psi, and 3 psi, respectively. Separation of D-Mannose-1-Phosphate and L-Galactose-1-Phosphate was achieved isocratically using a Hypercarb column (Thermo Electron, USA), 100×2.1 mm maintained at 40° C. Solvents were (A) 20 mM ammonium acetate and (B) methanol and the flow rate was 200 uL/min. Using a mobile phase of 2% B the retention times for D-Mannose-1-Phosphate and L-Galactose-1-Phosphate were 4.3 min and 4.9 min, respectively. MS data was acquired in the negative mode using both a selective reaction monitoring (SRM) method SRM m/z 259>m/z 79, 97 and a selected ion monitoring (SIM) method SIM m/z 259. […]

[2] = target: T1, kiwifruit GDP-L-Galactose Guanyltransferase EST 319998; test: Continuous coupled assay of transferase activity with guanyl acceptors; conditions: for % of D-mannose-1P / Rate: sugar phosphate as guanyl acceptor, epimerase generated substrate; for Rate: N = 6; for ability to act as acceptor for the guanyl moiety / Km / vamax: FIG. 3; for ability to act as acceptor for the guanyl moiety: physiological concentrations; for Km / vamax: varying concentrations of the guanyl acceptor, continuous coupled assay
Method: Expression of genes in E. coli. The EST 319998 from young fruit of Actinidia chinensis and At4g26850 were each cloned into pET30A (Novagene, USA), their sequence checked and expressed in E. coli. The N terminal His6 tag was used to purify the protein. An empty vector control was expressed and purified in parallel. Techniques were essentially as described earlier (Laing et al., 2004).
(§1) L-Galactose dehydrogenase (Gen Bank accession AA018639 (EST 56121), 1.5 ug/assay) was cloned from an EST derived from an A. deliciosa (kiwifruit) shoot bud library with a maltose binding protein presequence and assayed as described previously (Laing et al., 2004). L-Galactose-1-Phosphate phosphatase was cloned from Arabidopsis thaliana (At3g02870, 3.1 ug/assay) and assayed as described (Laing et al., 2004). GDP-D-Mannose 3′,5′-Epimerase (198296) was cloned from dormant kiwifruit (A. deliciosa) buds three days after hydrogen cyanamide treatment and assayed as described (Wolucka et al., 2001). The former two enzymes are highly specific as to their substrates (Laing et al., 2004; Laing et al., 2004).
The assay for GDP-L-Galactose-1-Phosphate Guanyltransferase was run in 20 mM TrisCl, pH 8.0, GDP-L-Galactose, with 1 mM D-Mannose-1-Phosphate. […] In the latter case, 0.21 mg of epimerase was incubated with GDP-D-Mannose in 20 mM Tris Cl pH 8 in a total volume of 400 μL (see Wolucka et al., 2001) for 30 minutes at 20 C and then used directly in the assay at a 1 to 20 dilution. Assays were either terminated after 10 minutes by heating to 100 C for three minutes, or directly coupled to the phosphatase and L-Galactose dehydrogenase to measure product formation during the assay. Heat terminated assays were cooled on ice, centrifuged to remove precipitated protein and L-Galactose assayed using the coupling enzymes described above (see also (Laing et al., 2004)).
The applicants used two assays to characterise the enzyme, using two sources of the substrate GDP-L-Galactose. The first assay used the E. coli expressed coupling enzymes L-Galactose-1-Phosphate phosphatase and L-Galactose dehydrogenase. […] The applicants either measured the product formed by adding the coupling enzymes in the assay and measuring the time course of NADH formed, or by stopping the reaction after 10 minutes by boiling for 3 minutes and centrifuging. To this latter fixed time assay, the applicants then either adding coupling enzymes to measure L-Galactose production or using the LCMS to measure the products. The LCMS was used only to confirm the results of the coupled enzyme reaction and to measure the reverse reaction.

[3] = tested on: L-Galactose dehydrogenase; test: L-Galactose dehydrogenase substrate specificity; type: biochemical, A. deliciosa (kiwifruit)
Method: as §1
The applicants used two assays to characterise the enzyme, using two sources of the substrate GDP-L-Galactose. The first assay used the E. coli expressed coupling enzymes L-Galactose-1-Phosphate phosphatase and L-Galactose dehydrogenase. […] The dehydrogenase is specific to L-Galactose, not reacting with D-Mannose or D-Galactose or a range of other sugars (Gatzek et al., 2002; Laing et al., 2004) except for L-Gulose. […] Consequently, our coupled assay would measure primarily L-Galactose and also L-Gulose. The applicants either measured the product formed by adding the coupling enzymes in the assay and measuring the time course of NADH formed, or by stopping the reaction after 10 minutes by boiling for 3 minutes and centrifuging. To this latter fixed time assay, the applicants then either adding coupling enzymes to measure L-Galactose production or using the LCMS to measure the products. The LCMS was used only to confirm the results of the coupled enzyme reaction and to measure the reverse reaction.

[4] = tested on: Tobacco (Nicotiana benthamiana) leaves; test: Leaf ascorbate after transient transformation of tobacco leaves; type: in vivo; conditions: transient expression with P19
Description: Tobacco (Nicotiana benthamiana) was transiently transformed with Agrobacterium containing the kiwifruit gene for GDP-L-Galactose Guanyltransferase (EST 319998) cloned in pGreen (Hellens et al., 2000) mixed with Agrobacterium containing the gene for the silencing suppressor P19 as previously described (Hellens et al., 2005). Controls were run using Agrobacterium containing P19 in pGreen alone. Tobacco leaves were harvested 9 days after transformation and frozen in liquid nitrogen.
Ascorbate was extracted as described previously in metaphosphoric acid without reducing agent (Davey et al., 2003; Rassam and Laing, 2005). […]

T1 sequence (A0A2R6QD99 entry or part of it): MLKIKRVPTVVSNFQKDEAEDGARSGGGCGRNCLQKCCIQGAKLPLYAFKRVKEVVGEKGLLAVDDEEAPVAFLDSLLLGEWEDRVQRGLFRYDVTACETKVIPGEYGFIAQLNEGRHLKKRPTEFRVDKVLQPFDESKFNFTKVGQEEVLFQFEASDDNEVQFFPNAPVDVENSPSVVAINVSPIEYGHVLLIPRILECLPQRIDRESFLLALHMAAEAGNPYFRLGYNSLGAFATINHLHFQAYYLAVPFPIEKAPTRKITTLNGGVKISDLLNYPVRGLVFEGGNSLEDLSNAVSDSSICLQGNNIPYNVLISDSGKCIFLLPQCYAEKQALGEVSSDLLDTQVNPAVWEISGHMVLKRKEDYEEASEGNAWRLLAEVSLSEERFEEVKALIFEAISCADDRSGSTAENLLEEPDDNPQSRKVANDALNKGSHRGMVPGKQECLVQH

Molecule | % of D-mannose-1P [2] | Rate [2] | ability to act as acceptor for the guanyl moiety [2] | vamax [2] | other results
Nc1nc2c(ncn2[C@@H]2O[C@H](COP(=O)(O)OP(=O)(O)O[C@H]3O[C@H](CO)[C@@H](O)[C@H](O)[C@@H]3O)[C@@H](O)[C@H]2O)c(=O)[nH]1 [GDPMan, GDP-D-Mannose] |  |  |  |  | transferase activity, LCMS ([1]; 0.057 ug protein): 0 nmoles/sec/ug protein; transferase activity, LCMS ([1]; 1.14 ug protein): 0 nmoles/sec/ug protein
O=P(O)(O)O[C@H]1O[C@H](CO)[C@@H](O)[C@H](O)[C@H]1O [D-Glucose-1-P] | 106% and 74% | 0.35 nmoles/sec/ug protein and 0.24 nmoles/sec/ug protein |  |  | 
Nc1nc2c(ncn2[C@@H]2O[C@H](COP(=O)(O)OP(=O)(O)OP(=O)(O)O)[C@@H](O)[C@H]2O)c(=O)[nH]1 [GTP] |  |  |  |  | transferase activity, LCMS ([1]; 0.057 ug protein): 0 nmoles/sec/ug protein; transferase activity, LCMS ([1]; 1.14 ug protein): 0 nmoles/sec/ug protein
O=P(O)(O)OC[C@H]1OC(O)[C@H](O)[C@@H](O)[C@@H]1O (stereo partly drawn) [D-Glucose-6-P] | 24% | 0.08 nmoles/sec/ug protein |  |  | rate relative to the best acceptors ([2]; guanyl acceptor, Table 2): about 25%
O=P(O)(O)O [phosphate, inorganic phosphate] |  |  | reaction was seen | 0.12±0.03 nmoles sec^−1 ug^−1 protein | Km [2]: 4400 ± 2000 µM
O=P(O)(O)O[C@H]1O[C@H](CO)[C@@H](O)[C@H](O)[C@@H]1O [D-Mannose-1-P, D-Mannose-1-Phosphate] | 100% | 0.33 nmoles/sec/ug protein | better acceptor for the guanyl moiety than phosphate or pyrophosphate | 0.17±0.009 nmoles sec^−1 ug^−1 protein | 
O=P(O)(O)OP(=O)(O)O [pyrophosphate, inorganic pyrophosphate] |  |  | reaction was seen | 0.032±0.002 nmoles sec^−1 ug^−1 protein | Km [2]: 160 ± 50 µM
O=P(O)(O)O[C@H]1O[C@H](CO)[C@H](O)[C@H](O)[C@H]1O [D-Galactose-1-P] | 113% | 0.38 nmoles/sec/ug protein |  |  | 
O=C[C@@H](O)[C@@H](O)[C@H](O)[C@@H](O)CO [L-Gulose] |  |  |  |  | KM (substrate) relative to L-Galactose [3]: 30 times; maximum velocity with L-Gulose relative to L-Galactose [3]: approximately 2.5 fold; activity compared with L-Galactose ([3]; at limiting substrate concentrations): about 8%
B1 |  |  |  |  | effect on leaf ascorbate [4]: increased ascorbate levels in the leaf
